# From ChEMBL document CHEMBL4402604, “Discovery and Structure-Activity Relationship Study of (Z)-5-Methylenethiazolidin-4-one Derivatives as Potent and Selective Pan-phosphatidylinositol 5-Phosphate 4-Kinase Inhibitors” (J Med Chem, 2020)
# Activity calls are given as the source filed them. The calls are words filed in the database; no cut-off is given here.
# Experiments:
# [1] = Lipophilicity, logD of the compound; assay type: physicochemical; conditions: octanol/water
# [2] = Stability in rat liver microsomes at 1 uM in presence of NADPH regeneration system incubated for 15 mins by LC-MS analysis; assay type: ADME, Microsome
# [3] = Permeability of the compound by PAMPA method; assay type: ADME
# [4] = molecular target: Activin receptor type-2A (Homo sapiens) (UniProt P27037); experiment: Inhibition of human ACVR2A expressed in baculovirus expression system
# Chain of Activin receptor type-2A (Homo sapiens) (P27037 whole entry): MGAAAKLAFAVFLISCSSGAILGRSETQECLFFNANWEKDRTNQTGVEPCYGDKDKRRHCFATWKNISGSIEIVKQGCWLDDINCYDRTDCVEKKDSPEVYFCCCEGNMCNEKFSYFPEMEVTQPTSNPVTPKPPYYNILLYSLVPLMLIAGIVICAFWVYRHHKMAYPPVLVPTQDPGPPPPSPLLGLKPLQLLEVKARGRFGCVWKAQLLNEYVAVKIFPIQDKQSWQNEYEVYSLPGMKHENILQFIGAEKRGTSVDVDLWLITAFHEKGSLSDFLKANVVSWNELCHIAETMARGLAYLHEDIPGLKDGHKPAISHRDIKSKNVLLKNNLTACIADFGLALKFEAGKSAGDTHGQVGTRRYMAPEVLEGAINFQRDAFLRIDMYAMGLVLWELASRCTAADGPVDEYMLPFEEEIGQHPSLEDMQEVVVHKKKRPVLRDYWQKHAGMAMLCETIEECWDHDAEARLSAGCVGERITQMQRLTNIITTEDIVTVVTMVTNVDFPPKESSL
logD [1],SMILES,further results
2.5,CS(=O)(=O)Nc1ccc(-c2cncc(-c3ccc4cc[nH]c4c3)c2)cc1,–
0.66,CS(=O)(=O)Nc1ccc(-c2cncc(/C=C3\SC(=N)NC3=O)c2)cc1,Stability [2]: Stable; permeability [3]: Impermeable
2.5,CS(=O)(=O)Nc1ccc(-c2cncc(-c3ccc4[nH]ccc4c3)c2)cc1,–
2.4,CN(C)c1ccc(-c2cncc(/C=C3\SC(=N)NC3=O)c2)cc1,–
-0.14,CS(=O)(=O)Nc1ccc(-c2cncc(/C=C3\CC(=O)NC3=O)c2)cc1,–
1.1,CNS(=O)(=O)c1ccc(-c2cncc(/C=C3\SC(=N)NC3=O)c2)cc1,–
-1,CS(=O)(=O)Nc1ccc(-c2cncc(/C=C3\OC(=O)NC3=O)c2)cc1,–
3.1,COc1ccc(-c2cncc(/C=C3\SC(=N)NC3=O)c2)c2ccccc12,–
1.5,CC(=O)Nc1cccc(-c2cncc(/C=C3\SC(=N)NC3=O)c2)c1,–
1.6,CNC(=O)Nc1ccc(-c2cncc(-c3ccc(NS(C)(=O)=O)cc3)c2)cc1,–
1.1,CS(=O)(=O)c1ccc(-c2cncc(/C=C3\SC(=N)NC3=O)c2)cc1,–
0.41,CS(=O)(=O)Nc1ccc(-c2cnc(N)c(/C=C3\SC(=N)NC3=O)c2)cc1,–
1.5,CS(=O)(=O)Nc1ccc(-c2cncc(-c3cccc4c3CC(=O)N4)c2)cc1,–
1.5,CC(=O)Nc1ccc(-c2cncc(/C=C3\SC(=N)NC3=O)c2)cc1,–
2.5,CS(=O)(=O)Nc1ccc(-c2cncc(-c3cccc4[nH]ccc34)c2)cc1,Stability [2]: Stable; permeability [3]: Permeable; inhibition [4]: Active
1.5,CC(=O)Nc1cccc(Oc2cncc(-c3ccc(NS(C)(=O)=O)cc3)c2)c1,–
0.41,CS(=O)(=O)Nc1ccc(-c2cc(/C=C3\SC(=N)NC3=O)cnc2N)cc1,Stability [2]: Stable; permeability [3]: Impermeable
3.7,N=C1NC(=O)/C(=C/c2cncc(-c3ccc(OC(F)(F)F)cc3)c2)S1,–
1.5,CC(=O)Nc1cccc(Nc2cncc(-c3ccc(NS(C)(=O)=O)cc3)c2)c1,–
1.7,CC(=O)Nc1cccc(-c2cncc(-c3ccc(NS(C)(=O)=O)cc3)c2)c1,–
-0.05,CS(=O)(=O)Nc1ccc(-c2cncc(/C=C3\SC(=O)NC3=O)c2)cc1,Stability [2]: Stable
1.4,CNC(=O)Nc1ccc(-c2cncc(/C=C3\SC(=N)NC3=O)c2)cc1,–
